# Source: patent publication US20260144739A1, “A SKIN BRIGHTENING COMPOSITION” (Conopco, Inc., d/b/a UNILEVER, priority 2022, published 2026)
# Key:
# [1] = test system: Co-cultures of HaCat keratinocytes and primary human melanocytes; test: Melanin content assay (% melanin reduction) in keratinocyte + melanocyte co-cultures; type: cell-based; settings: 72 hrs treatment; melanin (405 nm) corrected for cell numbers (MC/Calcein); vs DMSO control; actives in wt % as per example; fermented oil samples diluted 1:40
# Method: Various samples containing actives were prepared and the % melanin reduction was measured. The protocol for measuring the melanin reduction is summarized below:
# Co-cultures of HaCat keratinocytes and primary human melanocytes were mixed at 40,000 each (1:1 ratio) in 1 ml of a 1:1 mix of their respective culture medium and seeded as such per well, in 12 well plates. After 24 hrs, cultures were treated with various concentrations of the test materials shown in table 1 and left undisturbed for a further period of 72 hrs. Comparative vehicle control was also set up simultaneously. For melanin estimation at the end of the 72 hrs incubation, cell viability was first determined using the Calcein AM method. Briefly, spent media was removed and cells were washed once with 0.4 ml of 1×PBS/well. Fresh 1 μM calcein-AM in PBS buffer was added to each well, including control wells without cells. Plates were covered with aluminium foil and incubated for 30 mins at 37° C. in a CO2 incubator. Calcein fluorescence was measured (excitation at 490 nm and emission at 520 nm) in a TECAN M1000 plate reader. Culture wells were drained and lysed using 1N NaOH containing 10% DMSO and placed for 1 hour at 60° C. in a shaker incubator. 100 μl of the supernatant was transferred to a 384 well plate and melanin was measured in a TECAN plate reader (405 nm filter). […]
# [2] = test system: Co-cultures of HaCat keratinocytes and primary human melanocytes; test: Cell viability by the Calcein AM method in the co-cultures; type: cell-based; settings: 4-HR at concentrations higher than 0.0002%, at the cellular level in invitro experiments
# Method: Co-cultures of HaCat keratinocytes and primary human melanocytes were mixed at 40,000 each (1:1 ratio) in 1 ml of a 1:1 mix of their respective culture medium and seeded as such per well, in 12 well plates. After 24 hrs, cultures were treated with various concentrations of the test materials shown in table 1 and left undisturbed for a further period of 72 hrs. Comparative vehicle control was also set up simultaneously. For melanin estimation at the end of the 72 hrs incubation, cell viability was first determined using the Calcein AM method. Briefly, spent media was removed and cells were washed once with 0.4 ml of 1×PBS/well. Fresh 1 μM calcein-AM in PBS buffer was added to each well, including control wells without cells. Plates were covered with aluminium foil and incubated for 30 mins at 37° C. in a CO2 incubator. Calcein fluorescence was measured (excitation at 490 nm and emission at 520 nm) in a TECAN M1000 plate reader. Culture wells were drained and lysed using 1N NaOH containing 10% DMSO and placed for 1 hour at 60° C. in a shaker incubator. 100 μl of the supernatant was transferred to a 384 well plate and melanin was measured in a TECAN plate reader (405 nm filter). Melanin content (MC) was expressed after correction for cell numbers (MC/Calcein) and represented as % melanin.
Compound,% melanin reduction [1] [%],cell viability [2]
CCCCCCc1ccc(O)cc1O [C],3,–
"CCCCCCc1ccc(O)cc1O [Example 4-HR, 4-hexyl resorcinol]",–,leads to cell viability problems
CCCCCCc1ccc(O)cc1O [B],23,–
